Measured values from ChEMBL document CHEMBL3399975, “Rational design of specific binding hairpin Py-Im polyamides targeting human telomere sequences” (Bioorg Med Chem, 2015).

Experiments:
[1] = Binding affinity to human telomeric sequence in HBS-EP buffer at pH 7.4 at 25 degC by SPR analysis
[2] = Selectivity ratio of KD for 5'-Biotin-GGTTAAGGTTAGGTTTTCCTAACCTTAACC-3' (unknown origin) to KD for human telomeric sequence
Homo sapiens = species on record: Homo sapiens; assay: Binding affinity to human telomeric sequence assessed as change in melting temperature at pH 7 by UV-Vis spectrophotometry
[3] = Selectivity ratio of KD for 5'-Biotin-GGTTAGAGTTAGGTTTTCCTAACTCTAACC-3' (unknown origin) to KD for human telomeric sequence
[4] = Binding affinity to 5'-GGTTAGAGTTAGG-3'/3'-CCAATCTCAATCC-5' (unknown origin) assessed as change in melting temperature at pH 7 by UV-Vis spectrophotometry
[5] = Binding affinity to 5'-Biotin-GGTTAGAGTTAGGTTTTCCTAACTCTAACC-3' (unknown origin) in HBS-EP buffer at pH 7.4 at 25 degC by SPR analysis
[6] = Binding affinity to 5'-Biotin-GGTTAAGGTTAGGTTTTCCTAACCTTAACC-3' (unknown origin) in HBS-EP buffer at pH 7.4 at 25 degC by SPR analysis
[7] = Binding affinity to 5'-GGTTAAGGTTAGG-3'/3'-CCAATTCCAATCC-5' (unknown origin) assessed as change in melting temperature at pH 7 by UV-Vis spectrophotometry

Kd [1] | Ratio [2] | ΔTm (Homo sapiens) | Ratio [3] | ΔTm [4] | Kd [5] | Kd [6] | ΔTm [7] | SMILES
0.93 nM | – | – | – | – | – | – | – | CN(CCCNC(=O)CCNC(=O)c1nc(NC(=O)c2cc(NC(=O)c3cc(NC(=O)c4cc(NC(=O)[C@@H](CCNC(=O)c5cc(NC(=O)c6nc(NC(=O)c7nccn7C)cn6C)cn5C)NC(=O)COCCOCCNC(=O)c5nc(NC(=O)c6cc(NC(=O)c7cc(NC(=O)c8cc(NC(=O)[C@H](N)CCNC(=O)c9cc(NC(=O)c%10nc(NC(=O)c%11nccn%11C)cn%10C)cn9C)cn8C)cn7C)cn6C)cn5C)cn4C)cn3C)cn2C)cn1C)CCCNS(=O)(=O)c1ccc(C2=c3cc4c5c(c3Oc3c2cc2c6c3CCCN6CCC2)CCC[N+]=5CCC4)c(S(=O)(=O)[O-])c1
1.76 nM | 0.36 | 27.8 °C | 17.3 | 22.4 °C | 30.4 nM | 0.627 nM | 29.3 °C | CN(CCCN)CCCNC(=O)CCNC(=O)c1nc(NC(=O)c2cc(NC(=O)c3cc(NC(=O)c4cc(NC(=O)[C@H](N)CCNC(=O)c5cc(NC(=O)c6nc(NC(=O)c7nccn7C)cn6C)cn5C)cn4C)cn3C)cn2C)cn1C
1.56 nM | 13.3 | 27.7 °C | 32.8 | 18.3 °C | 51.1 nM | 20.7 nM | 24.8 °C | CN(CCCN)CCCNC(=O)CCNC(=O)c1cc(NC(=O)c2cc(NC(=O)c3cc(NC(=O)c4cc(NC(=O)[C@H](N)CCNC(=O)c5cc(NC(=O)c6nc(NC(=O)c7nc(NC(=O)c8nccn8C)cn7C)cn6C)cn5C)cn4C)cn3C)cn2C)cn1C
0.431 nM | 0.013 | 27.4 °C | 24.6 | 21.6 °C | 10.6 nM | 0.00561 nM | 31.6 °C | CN(CCCN)CCCNC(=O)CCNC(=O)c1cc(NC(=O)c2cc(NC(=O)c3cc(NC(=O)c4cc(NC(=O)[C@H](N)CCNC(=O)c5cc(NC(=O)c6nc(NC(=O)c7nccn7C)cn6C)cn5C)cn4C)cn3C)cn2C)cn1C
